Measurements from PubChem BioAssay (NCI).
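In this assay, cells in 96-well plates receive the compound at five concentrations for 48 hours. Endpoints are linearly interpolated between the surrounding concentrations. GI50 is the concentration that inhibits growth by half. TGI is the concentration that stops growth completely.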

How the values were obtained:
Test in all cases: inhibition of tumour cell growth, NCI panel, 48 h
UO-31 renal = test system: UO-31 renal
IGROV1 ovarian = test system: IGROV1 ovarian
SK-OV-3 ovarian = test system: SK-OV-3 ovarian
COLO 205 colon = test system: COLO 205 colon
SF-295 CNS = test system: SF-295 CNS
SF-539 CNS = test system: SF-539 CNS
SNB-75 CNS = test system: SNB-75 CNS
LOX IMVI melanoma = test system: LOX IMVI melanoma
UACC-257 melanoma = test system: UACC-257 melanoma
SK-MEL-28 melanoma = test system: SK-MEL-28 melanoma

Compound	TGI (UO-31 renal) [µM]	TGI (IGROV1 ovarian) [µM]	TGI (SK-OV-3 ovarian) [µM]	TGI (COLO 205 colon) [µM]	TGI (SF-295 CNS) [µM]	TGI (SF-539 CNS) [µM]	TGI (SNB-75 CNS) [µM]	TGI (LOX IMVI melanoma) [µM]	TGI (UACC-257 melanoma) [µM]	TGI (SK-MEL-28 melanoma) [µM]	GI50 (UO-31 renal) [µM]	GI50 (IGROV1 ovarian) [µM]	GI50 (SK-OV-3 ovarian) [µM]	GI50 (COLO 205 colon) [µM]	GI50 (SF-295 CNS) [µM]	GI50 (SF-539 CNS) [µM]	GI50 (SNB-75 CNS) [µM]	GI50 (UACC-257 melanoma) [µM]	GI50 (SK-MEL-28 melanoma) [µM]	GI50 (LOX IMVI melanoma) [µM]
CCOC(=O)C1=C(C)N(C2OC(COC(=O)c3ccccc3)C(OC(=O)c3ccccc3)C2OC(=O)c2ccccc2)C(=S)NC1c1ccccc1 (stereo not drawn)	99.4	> 100	> 100	> 100	> 100	> 100	> 100	> 100	> 100	> 100	–	–	–	–	–	–	–	–	–	–
C(=C/c1nc2ccccc2o1)/c1ccc2c(c1)OCO2	49.5	> 83	53.1	> 100	23.1	34.6	> 63.8	> 47.8	> 100	> 100	–	–	–	–	–	–	–	–	–	–
CN/N=C(\C(=O)Nc1ccc(C)c(C)c1)C(C(=O)OC)c1nc2ccc([N+](=O)[O-])cc2[nH]c1=O (stereo not drawn)	> 100	> 100	> 100	> 100	> 100	> 100	> 100	> 100	> 100	> 100	–	–	–	–	–	–	–	–	–	–
CCOC(C)OC1CC(n2cc(C)c(=O)[nH]c2=O)OC1CO (stereo not drawn)	> 100	> 100	> 100	> 100	> 100	> 100	–	> 100	> 100	> 100	–	–	–	–	–	–	–	–	–	–
C=C(C)[C@@H]1CC[C@]2(CO)CC[C@]3(C)[C@H](CC[C@@H]4[C@@]5(C)CC[C@H](NCO)C(C)(C)[C@@H]5CC[C@]43C)[C@@H]12	1.35	1.68	1.61	1.82	1.58	1.52	1.4	–	1.91	1.61	0.703	0.899	0.87	0.898	0.873	0.826	0.71	0.935	0.894	–
CCOC(=O)C(C)N1C(=O)c2ccccc2S1(=O)=O (stereo not drawn)	> 100	> 100	> 100	> 100	> 100	> 100	> 100	> 100	> 100	> 100	–	–	–	–	–	–	–	–	–	–
C=C(C)[C@@H]1CC[C@]2(C(=O)NC(C)=O)CC[C@]3(C)[C@H](CC[C@@H]4[C@@]5(C)CCCNC(C)(C)[C@@H]5CC[C@]43C)[C@@H]12	2.69	3.15	3.22	2.98	3.24	2.84	2.83	2.48	3.75	3.04	1.4	1.69	1.63	1.19	1.81	1.51	1.4	1.95	1.66	1.18
CN1CN(C(=O)N2CN(C)C(=O)N(C)C2)CN(C)C1=O	> 100	> 100	> 100	> 100	> 100	> 100	> 100	> 100	> 100	> 100	–	–	–	–	–	–	–	–	–	–
NC(=O)Oc1ccccc1	> 100	–	> 100	> 100	> 100	–	> 100	> 100	> 100	> 100	–	–	–	–	–	–	–	–	–	–
O=C(CCC1CCCCN1)Nc1ccc2c(c1)C(=O)c1ccc(NC(=O)CCN3CCCCC3)cc1C2=O (stereo not drawn)	2.68	31.2	70.1	2.65	20.8	8.46	16.4	2.66	2.94	3.77	–	–	–	–	–	–	–	–	–	–
CCOC(=O)Cn1c(=O)c(C)cn(COCCO)c1=O	> 100	> 100	–	> 100	–	> 100	> 100	> 100	> 100	> 100	–	–	–	–	–	–	–	–	–	–
COc1ccc(C2=NC(c3ccc(Cl)cc3)C(c3ccc(Cl)cc3)N2C(=O)N2CCNC(=O)C2)c(OC(C)C)c1 (stereo not drawn)	–	3.29	4.31	> 10	3.38	4.01	4.8	3.33	4.84	7.62	–	1.76	2.27	3.31	1.81	2.02	2.37	2.64	3.24	1.78
CC1OC(=O)C(C(C)C)NC(=O)C(C(C)C)OC(=O)C(C(C)C)NC(=O)C(C)OC(=O)C(C(C)C)NC(=O)C(C(C)C)OC(=O)C(C(C)C)NC(=O)C(C)OC(=O)C(C(C)C)NC(=O)C(C(C)C)OC(=O)C(C(C)C)NC1=O (stereo not drawn)	0.0541	5.34	0.225	–	–	0.328	0.00378	–	0.145	5.63	–	–	–	< 0.0001	< 0.0001	0.000484	–	–	< 0.0001	< 0.0001
